Reference: patent publication US7803815B2, “Indol-3-yl-corbonyl-piperidin-benzoimidazol derivatives” (Hoffmann-La Roche Inc., priority 2005, dated 2010)

Target: T1, human V1a receptor (Homo sapiens, UniProt P37288)
T1 construct: expressed in transfected cells; host or cells: HEK293 cells, transiently transfected; membrane preparation
Assay: human V1a receptor binding, 3H-Vasopressin SPA on membranes of transfected HEK293 cells
Conditions: displacement of 4 nM 3H-Vasopressin; HEK293 cell membranes; 1 h at room temperature; Ki from IC50 by the Cheng-Prussoff equation
Method: The human V1a receptor was cloned by RT-PCR from total human liver RNA. The coding sequence was subcloned in an expression vector after sequencing to confirm the identity of the amplified sequence. […] Cell membranes were prepared from HEK293 cells transiently transfected with the expression vector and grown in 20 liter fermenters with the following protocol.
50 g of cells are resuspended in 30 ml freshly prepared ice cold Lysis buffer (50 mM HEPES, 1 mM EDTA, 10 mM MgCl2 adjusted to pH=7.4+ complete cocktail of protease inhibitor (Roche Diagnostics)). Homogenized with Polytron for 1 min and sonicated on ice for 2×2 minutes at 80% intensity (Vibracell sonicator). The preparation is centrifuged 20 min at 500 g at 4° C., the pellet is discarded, and the supernatant centrifuged 1 hour at 43,000 g at 4° C. (19,000 rpm). The pellet is resuspended in 12.5 ml Lysis buffer+12.5 ml Sucrose 20% and homogenized using a Polytron for 1-2 min. The protein concentration is determined by the Bradford method, and aliquots are stored at −80° C. until use. For binding studies 60 mg Yttrium silicate SPA beads (Amersham) are mixed with an aliquot of membrane in binding buffer (50 mM Tris, 120 mM NaCl, 5 mM, KCl, 2 mM CaCl2, 10 mM MgCl2) for 15 minutes with mixing. 50 ul of bead/membrane mixture is then added to each well of a 96 well plate, followed by 50 ul of 4 nM 3H-Vasopressin (American Radiolabeled Chemicals). For total binding measurement, 100 ul of binding buffer are added to the respective wells, for non-specific binding 100 ul of […] cold vasopressin and for compound testing 100 ul of a serial dilution of each compound in 2% DMSO. The plate is incubated 1 h at room temperature, centrifuged 1 min at 1000 g and counted on a Packard Top-Count. Non-specific binding counts are subtracted from each well, and data is normalized to the maximum specific binding set at 100%. To calculate an IC 50, the curve is fitted using a non-linear regression model (XLfit), and the Ki is calculated using the Cheng-Prussoff equation.

T1 sequence (P37288 whole entry): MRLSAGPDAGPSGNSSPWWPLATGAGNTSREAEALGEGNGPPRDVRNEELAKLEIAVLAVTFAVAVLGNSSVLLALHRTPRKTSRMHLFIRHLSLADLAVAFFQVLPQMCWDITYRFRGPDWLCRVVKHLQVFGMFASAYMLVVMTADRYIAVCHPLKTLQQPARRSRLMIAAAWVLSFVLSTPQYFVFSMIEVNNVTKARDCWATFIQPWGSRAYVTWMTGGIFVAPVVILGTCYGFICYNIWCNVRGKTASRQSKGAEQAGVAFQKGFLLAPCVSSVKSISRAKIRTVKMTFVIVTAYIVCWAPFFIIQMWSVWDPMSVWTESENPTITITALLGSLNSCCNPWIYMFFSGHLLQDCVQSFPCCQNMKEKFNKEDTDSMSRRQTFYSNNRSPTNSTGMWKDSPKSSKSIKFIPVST

| SMILES | Ki |
| --- | --- |
| Cc1c(C(=O)N2CCC(n3c(Cl)nc4ccccc43)CC2)c2ccccc2n1Cc1ccccc1 [Example 1, (1-Benzyl-2-methyl-1H-indol-3-yl)-[4-(2-chloro-benzoimidazol-1-yl)-piperidin-1-yl]-methanone] | 45 nM |
| Cc1c(C(=O)N2CCC(n3c(N4CCOCC4)nc4ccccc43)CC2)c2ccccc2n1Cc1ccccc1 [Example 3, (1-Benzyl-2-methyl-1H-indol-3-yl)-[4-(2-morpholin-4-yl-benzoimidazol-1-yl)-piperidin-1-yl]-methanone] | 18 nM |
| Cc1c(C(=O)N2CCC(n3c(N4CCCCC4)nc4ccccc43)CC2)c2ccccc2n1Cc1ccccc1 [Example 4, (1-Benzyl-2-methyl-1H-indol-3-yl)-[4-(2-piperidin-1-yl-benzoimidazol-1-yl)-piperidin-1-yl]-methanone] | 6 nM |
| O=C(c1cn(Cc2ccccc2)c2ccccc12)N1CCC(n2c(=O)[nH]c3ccccc32)CC1 [Example 8, 1-[1-(1-Benzyl-1H-indole-3-carbonyl)-piperidin-4-yl]-1,3-dihydro-benzoimidazol-2-one] | 13 nM |
| Cc1c(C(=O)N2CCC(n3c(=O)n(C)c4ccccc43)CC2)c2ccccc2n1Cc1ccccc1 [Example 9, 1-{1-[(1-benzyl-2-methyl-1H-indol-3-yl)carbonyl]piperidin-4-yl}-3-methyl-1,3-dihydro-2H-benzimidazol-2-one] | 13 nM |
| Cc1[nH]c2ccccc2c1C(=O)N1CCC(n2c(=O)[nH]c3ccccc32)CC1 [Example 10, 1-[1-(2-Methyl-1H-indole-3-carbonyl)-piperidin-4-yl]-1,3-dihydro-benzoimidazol-2-one] | 39 nM |
| COc1ccc2c(C(=O)N3CCC(n4c(=O)[nH]c5ccccc54)CC3)cn(C(C)C)c2c1 [Example 11, 1-[1-(1-Isopropyl-6-methoxy-1H-indole-3-carbonyl)-piperidin-4-yl]-1,3-dihydro-benzoimidazol-2-one] | 20 nM |
| CC(C)n1cc(C(=O)N2CCC(n3c(=O)[nH]c4ccccc43)CC2)c2ccc(F)cc21 [Example 12, 1-[1-(6-Fluoro-1-isopropyl-1H-indole-3-carbonyl)-piperidin-4-yl]-1,3-dihydro-benzoimidazol-2-one] | 13 nM |
| CC(C)n1cc(C(=O)N2CCC(n3c(=O)[nH]c4ccccc43)CC2)c2ccc(Cl)cc21 [Example 13, 1-[1-(6-Chloro-1-isopropyl-1H-indole-3-carbonyl)-piperidin-4-yl]-1,3-dihydro-benzoimidazol-2-one] | 2 nM |
| CC(C)n1cc(C(=O)N2CCC(n3c(=O)[nH]c4ccccc43)CC2)c2ccccc21 [Example 14, 1-[1-(1-Isopropyl-1H-indole-3-carbonyl)-piperidin-4-yl]-1,3-dihydro-benzoimidazol-2-one] | 32 nM |
| O=C(c1c[nH]c2cc(Cl)ccc12)N1CCC(n2c(=O)[nH]c3ccccc32)CC1 [Example 18, 1-[1-(6-Chloro-1H-indole-3-carbonyl)-piperidin-4-yl]-1,3-dihydro-benzoimidazol-2-one] | 7 nM |
| O=C(c1c[nH]c2cc(Cl)c(F)cc12)N1CCC(n2c(=O)[nH]c3ccccc32)CC1 [Example 19, 1-[1-(6-Chloro-5-fluoro-1H-indole-3-carbonyl)-piperidin-4-yl]-1,3-dihydro-benzoimidazol-2-one] | 5 nM |
| Cc1c(C(=O)N2CCC(n3c(=O)n(CCN(C)C)c4ccccc43)CC2)c2ccccc2n1Cc1ccccc1 [Example 20, 1-[1-(1-Benzyl-2-methyl-1H-indole-3-carbonyl)-piperidin-4-yl]-3-(2-dimethylamino-ethyl)-1,3-dihydro-benzoimidazol-2-one] | 5 nM |
| N#CCn1cc(C(=O)N2CCC(n3c(=O)[nH]c4ccccc43)CC2)c2ccc(Cl)cc21 [Example 21, {6-Chloro-3-[4-(2-oxo-2,3-dihydro-benzoimidazol-1-yl)-piperidine-1-carbonyl]-indol-1-yl}-acetonitrile] | 6 nM |
| CCC(C)C(=O)c1[nH]c2ccccc2c1C(=O)N1CCC(n2c(=O)[nH]c3ccccc32)CC1 (stereo not shown) [Example 22, 1-{1-[2-(2-Methyl-butyryl)-1H-indole-3-carbonyl]-piperidin-4-yl}-1,3-dihydro-benzoimidazol-2-one] | 11 nM |
| Cc1c(C(=O)N2CCC(n3c(=O)[nH]c4ccccc43)CC2)c2ccccc2n1Cc1ccccc1 [Example 23, 1-[1-(1-Benzyl-2-methyl-1H-indole-3-carbonyl)-piperidin-4-yl]-1,3-dihydro-benzoimidazol-2-one] | 6 nM |
| O=C(c1cn(Cc2ccccc2)c2cc(Cl)ccc12)N1CCC(n2c(=O)[nH]c3ccccc32)CC1 [Example 24, 1-[1-(1-Benzyl-6-chloro-1H-indole-3-carbonyl)-piperidin-4-yl]-1,3-dihydro-benzoimidazol-2-one] | 2 nM |
| O=C(c1cn(CC2CCCCC2)c2ccccc12)N1CCC(n2c(=O)[nH]c3ccccc32)CC1 [Example 25, 1-[1-(1-Cyclohexylmethyl-1H-indole-3-carbonyl)-piperidin-4-yl]-1,3-dihydro-benzoimidazol-2-one] | 20 nM |
| CN(C)CCn1cc(C(=O)N2CCC(n3c(=O)[nH]c4ccccc43)CC2)c2ccc(Cl)cc21 [Example 26, 1-{1-[6-Chloro-1-(2-dimethylamino-ethyl)-1H-indole-3-carbonyl]-piperidin-4-yl}-1,3-dihydro-benzoimidazol-2-one] | 0.7 nM |
| CN(C)CCn1c(=O)n(C2CCN(C(=O)c3c[nH]c4cc(Cl)ccc34)CC2)c2ccccc21 [Example 27, 1-[1-(6-Chloro-1H-indole-3-carbonyl)-piperidin-4-yl]-3-(2-dimethylamino-ethyl)-1,3-dihydro-benzoimidazol-2-one] | 5 nM |
| O=C(c1cn(C(=O)c2cccc(F)c2)c2cc(Cl)ccc12)N1CCC(n2c(=O)[nH]c3ccccc32)CC1 [Example 28, 1-{1-[6-Chloro-1-(3-fluoro-benzoyl)-1H-indole-3-carbonyl]-piperidin-4-yl}-1,3-dihydro-benzoimidazol-2-one] | 12 nM |
| O=C(Cn1cc(C(=O)N2CCC(n3c(=O)[nH]c4ccccc43)CC2)c2ccc(Cl)cc21)c1cccc(F)c1 [Example 29, 1-(1-{6-Chloro-1-[2-(3-fluoro-phenyl)-2-oxo-ethyl]-1H-indole-3-carbonyl}-piperidin-4-yl)-1,3-dihydro-benzoimidazol-2-one] | 22 nM |
| O=C(c1cn(C(=O)c2ccccc2F)c2cc(Cl)ccc12)N1CCC(n2c(=O)[nH]c3ccccc32)CC1 [Example 30, 1-{1-[6-Chloro-1-(2-fluoro-benzoyl)-1H-indole-3-carbonyl]-piperidin-4-yl}-1,3-dihydro-benzoimidazol-2-one] | 35 nM |
| O=C(c1cn(C(=O)c2cccc(F)c2F)c2cc(Cl)ccc12)N1CCC(n2c(=O)[nH]c3ccccc32)CC1 [Example 31, 1-{1-[6-Chloro-1-(2,3-difluoro-benzoyl)-1H-indole-3-carbonyl]-piperidin-4-yl}-1,3-dihydro-benzoimidazol-2-one] | 25 nM |
| O=C(c1cn(Cc2cc(F)cc(F)c2)c2cc(Cl)ccc12)N1CCC(n2c(=O)[nH]c3ccccc32)CC1 [Example 33, 1-{1-[6-Chloro-1-(3,5-difluoro-benzyl)-1H-indole-3-carbonyl]-piperidin-4-yl}-1,3-dihydro-benzoimidazol-2-one] | 15 nM |
